Data published in EP0908457B1, “3-(1,2-benzisothiazol- and isoxazol-5-Y1)-2,4(1H,3H)-pyrimidinedione or thione and 3-(1,2-benzisothiazol- and isoxazol-5-y1)-4(3H)-pyrimidinone or thione herbicidal agents” (BASF AKTIENGESELLSCHAFT, priority 1997, dated 1999).

Experiments:
[1] = tested on: Echinochloa oryzoides (Ard.) Fritsch.; assay: Preemergence weed control under flooded paddy conditions, ECHORC (Watergrass (Calif.)); format: in vivo; conditions: flooded paddy, rated three to four weeks after treatment; on herbicidal effect rating, ECHORC: meaning of each grade not given here
[2] = tested on: Monochoria vaginalis, Presl.; assay: Preemergence weed control under flooded paddy conditions, MOOVA (Monochoria); format: in vivo; conditions: flooded paddy, rated three to four weeks after treatment; on herbicidal effect rating, MOOVA: meaning of each grade not given here
[3] = tested on: Cyperus serotinus, Rottb.; assay: Preemergence weed control under flooded paddy conditions, CYPSE (Flatsedge); format: in vivo; conditions: rated three to four weeks after treatment; on herbicidal effect rating, CYPSE: meaning of each grade not given here
Sagittaria pygmaea, L. = assay: Preemergence weed control under flooded paddy conditions, SAGPY (Arrowhead (Pygmaea)); format: in vivo; conditions: flooded paddy, rated three to four weeks after treatment; on herbicidal effect rating, SAGPY: meaning of each grade not given here
Cyperus iria = assay: Preemergence weed control under flooded paddy conditions, CYPIR (Rice Flatsedge); format: in vivo; conditions: flooded paddy, rated three to four weeks after treatment; on herbicidal effect rating, CYPIR: meaning of each grade not given here
[4] = tested on: Oryza sativa, (L.) Tebonnet; assay: Rice tolerance to post-transplant applications under flooded paddy conditions (Example 187), ORYSAT (Rice, Tebonnet); conditions: rated three to four weeks after treatment; on herbicidal effect rating ORYSAT: meaning of each grade not given here
[5] = Rate 0.0313 kg/ha, preemergence
[6] = Rate 0.0625 kg/ha, preemergence
[7] = Rate 0.1250 kg/ha, preemergence
[8] = Rate 0.2500 kg/ha, preemergence
[9] = Rate 0.0320 kg/ha, preemergence
[10] = Rate 0.0620 kg/ha, preemergence
[11] = Rate 0.0320 kg/ha, preemergence weeds
[12] = Rate 0.0620 kg/ha, preemergence weeds
[13] = Rate 0.1250 kg/ha, preemergence weeds
[14] = Rate 0.2500 kg/ha, preemergence weeds

## Cc1ccc(OC(C)C)c(-c2nsc3ccc(-n4c(=O)cc(C(F)(F)F)n(C)c4=O)cc23)c1 [Example 59, 3-[3-(6-Isopropoxy-m-tolyl)-1,2-benzisothiazol-5-yl]-1-methyl-6-(trifluoromethyl)-2,4(1H,3H)-pyrimidinedione]
[1]; 0.0313 kg/ha, preemergence
  herbicidal effect rating, ECHORC: 9.0
[1]; 0.0625 kg/ha, preemergence
  herbicidal effect rating, ECHORC: 9.0
[1]; 0.1250 kg/ha, preemergence
  herbicidal effect rating, ECHORC: 9.0
[1]; 0.2500 kg/ha, preemergence
  herbicidal effect rating, ECHORC: 9.0
[2]; 0.0313 kg/ha, preemergence
  herbicidal effect rating, MOOVA: 9.0
[2]; 0.0625 kg/ha, preemergence
  herbicidal effect rating, MOOVA: 9.0
[2]; 0.1250 kg/ha, preemergence
  herbicidal effect rating, MOOVA: 9.0
[2]; 0.2500 kg/ha, preemergence
  herbicidal effect rating, MOOVA: 9.0
[3]; 0.0313 kg/ha, preemergence
  herbicidal effect rating, CYPSE: 0.0
[3]; 0.0625 kg/ha, preemergence
  herbicidal effect rating, CYPSE: 0.0
[3]; 0.1250 kg/ha, preemergence
  herbicidal effect rating, CYPSE: 0.0
[3]; 0.2500 kg/ha, preemergence
  herbicidal effect rating, CYPSE: 0.0
Sagittaria pygmaea, L.; 0.0313 kg/ha, preemergence
  herbicidal effect rating, SAGPY: 0.0
Sagittaria pygmaea, L.; 0.0625 kg/ha, preemergence
  herbicidal effect rating, SAGPY: 0.0
Sagittaria pygmaea, L.; 0.1250 kg/ha, preemergence
  herbicidal effect rating, SAGPY: 0.0
Sagittaria pygmaea, L.; 0.2500 kg/ha, preemergence
  herbicidal effect rating, SAGPY: 0.0
Cyperus iria; 0.0313 kg/ha, preemergence
  herbicidal effect rating, CYPIR: 7.0
Cyperus iria; 0.0625 kg/ha, preemergence
  herbicidal effect rating, CYPIR: 7.0
Cyperus iria; 0.1250 kg/ha, preemergence
  herbicidal effect rating, CYPIR: 8.0
Cyperus iria; 0.2500 kg/ha, preemergence
  herbicidal effect rating, CYPIR: 9.0
[4]; 0.0313 kg/ha
  herbicidal effect rating, ORYSAT (rice tolerance): 2.0
[4]; 0.0625 kg/ha
  herbicidal effect rating, ORYSAT (rice tolerance): 3.0
[4]; 0.1250 kg/ha
  herbicidal effect rating, ORYSAT (rice tolerance): 4.0
[4]; 0.2500 kg/ha
  herbicidal effect rating, ORYSAT (rice tolerance): 4.0

## Cn1c(C(F)(F)F)cc(=O)n(-c2ccc3snc(COCCCCl)c3c2)c1=O [Example 224, 3-{3-[(3-Chloropropoxy)methyl]-1,2-benzisothiazol-5-yl}-1-methyl-6-(trifluoromethyl)-2,4(1H,3H)-pyrimidinedione]
[1]; [5]
  ECHORC herbicidal effect rating: 6.0
[1]; [6]
  ECHORC herbicidal effect rating: 9.0
[1]; [7]
  ECHORC herbicidal effect rating: 9.0
[1]; [8]
  ECHORC herbicidal effect rating: 9.0
[2]; [5]
  MOOVA herbicidal effect rating: 9.0
[2]; [6]
  MOOVA herbicidal effect rating: 9.0
[2]; [7]
  MOOVA herbicidal effect rating: 9.0
[2]; [8]
  MOOVA herbicidal effect rating: 9.0
[3]; [5]
  CYPSE herbicidal effect rating: 0.0
[3]; [6]
  CYPSE herbicidal effect rating: 0.0
[3]; [7]
  CYPSE herbicidal effect rating: 2.0
[3]; [8]
  CYPSE herbicidal effect rating: 7.0
Sagittaria pygmaea, L.; [5]
  SAGPY herbicidal effect rating: 0.0
Sagittaria pygmaea, L.; [6]
  SAGPY herbicidal effect rating: 2.0
Sagittaria pygmaea, L.; [7]
  SAGPY herbicidal effect rating: 4.0
Sagittaria pygmaea, L.; [8]
  SAGPY herbicidal effect rating: 8.0
Cyperus iria; [5]
  CYPIR herbicidal effect rating: 4.0
Cyperus iria; [6]
  CYPIR herbicidal effect rating: 7.0
Cyperus iria; [7]
  CYPIR herbicidal effect rating: 8.0
Cyperus iria; [8]
  CYPIR herbicidal effect rating: 8.0
[4]; Rate 0.0313 kg/ha
  ORYSAT herbicidal effect rating: 6.0
[4]; Rate 0.0625 kg/ha
  ORYSAT herbicidal effect rating: 7.0
[4]; Rate 0.1250 kg/ha
  ORYSAT herbicidal effect rating: 8.0
[4]; Rate 0.2500 kg/ha
  ORYSAT herbicidal effect rating: 9.0

## CCCCS(=O)(=O)NC(=O)COc1ccc(C)cc1-c1nsc2ccc(-n3c(=O)cc(C(F)(F)F)n(C)c3=O)cc12 [Example 573, Acetamide, N-(butylsulfonyl)-2-{{2-{5-[3,6-dihydro-3-methyl-2,6-dioxo-4-(trifluoromethyl)-1(2H)-pyrimidinyl]-1,2-benzisothiazol-3-yl}-p-tolyl}oxy}-]
[1]; [9]
  herbicidal effect rating, ECHORC: 6.0
[1]; [10]
  herbicidal effect rating, ECHORC: 7.0
[1]; [7]
  herbicidal effect rating, ECHORC: 7.0
[1]; [8]
  herbicidal effect rating, ECHORC: 7.0
[2]; [9]
  herbicidal effect rating, MOOVA: 9.0
[2]; [10]
  herbicidal effect rating, MOOVA: 9.0
[2]; [7]
  herbicidal effect rating, MOOVA: 9.0
[2]; [8]
  herbicidal effect rating, MOOVA: 9.0
[3]; [9]
  herbicidal effect rating, CYPSE: 0.0
[3]; [10]
  herbicidal effect rating, CYPSE: 0.0
[3]; [7]
  herbicidal effect rating, CYPSE: 0.0
[3]; [8]
  herbicidal effect rating, CYPSE: 4.0
Sagittaria pygmaea, L.; [9]
  herbicidal effect rating, SAGPY: 0.0
Sagittaria pygmaea, L.; [10]
  herbicidal effect rating, SAGPY: 0.0
Sagittaria pygmaea, L.; [7]
  herbicidal effect rating, SAGPY: 0.0
Sagittaria pygmaea, L.; [8]
  herbicidal effect rating, SAGPY: 2.0
Cyperus iria; [9]
  herbicidal effect rating, CYPIR: 0.0
Cyperus iria; [10]
  herbicidal effect rating, CYPIR: 3.0
Cyperus iria; [7]
  herbicidal effect rating, CYPIR: 5.0
Cyperus iria; [8]
  herbicidal effect rating, CYPIR: 5.0
[4]; Rate 0.0320 kg/ha
  herbicidal effect rating ORYSAT: 0.0
[4]; Rate 0.0620 kg/ha
  herbicidal effect rating ORYSAT: 0.0
[4]; Rate 0.1250 kg/ha
  herbicidal effect rating ORYSAT: 0.0
[4]; Rate 0.2500 kg/ha
  herbicidal effect rating ORYSAT: 1.0

## Cn1c(C(F)(F)F)cc(=O)n(-c2ccc3snc(COC(=O)Cc4ccccc4)c3c2)c1=O [Example 369, 2,4(1H,3H)-Pyrimidinedione, 3-[3-(hydroxymethyl)-1,2-benzisothiazol-5-yl]-1-methyl-6-(trifluoromethyl)-, phenylacetate (ester)]
[1]; [9]
  herbicidal effect rating, ECHORC: 3.0
[1]; [10]
  herbicidal effect rating, ECHORC: 3.0
[1]; [7]
  herbicidal effect rating, ECHORC: 6.0
[1]; [8]
  herbicidal effect rating, ECHORC: 8.0
[2]; [9]
  herbicidal effect rating, MOOVA: 9.0
[2]; [10]
  herbicidal effect rating, MOOVA: 9.0
[2]; [7]
  herbicidal effect rating, MOOVA: 9.0
[2]; [8]
  herbicidal effect rating, MOOVA: 9.0
[3]; [9]
  herbicidal effect rating, CYPSE: 0.0
[3]; [10]
  herbicidal effect rating, CYPSE: 3.0
[3]; [7]
  herbicidal effect rating, CYPSE: 4.0
[3]; [8]
  herbicidal effect rating, CYPSE: 9.0
Sagittaria pygmaea, L.; [9]
  herbicidal effect rating, SAGPY: 0.0
Sagittaria pygmaea, L.; [10]
  herbicidal effect rating, SAGPY: 6.0
Sagittaria pygmaea, L.; [7]
  herbicidal effect rating, SAGPY: 9.0
Sagittaria pygmaea, L.; [8]
  herbicidal effect rating, SAGPY: 9.0
Cyperus iria; [9]
  herbicidal effect rating, CYPIR: 7.0
Cyperus iria; [10]
  herbicidal effect rating, CYPIR: 7.0
Cyperus iria; [7]
  herbicidal effect rating, CYPIR: 9.0
Cyperus iria; [8]
  herbicidal effect rating, CYPIR: 9.0
[4]; Rate 0.0320 kg/ha
  herbicidal effect rating ORYSAT: 6.0
[4]; Rate 0.0620 kg/ha
  herbicidal effect rating ORYSAT: 6.0
[4]; Rate 0.1250 kg/ha
  herbicidal effect rating ORYSAT: 7.0
[4]; Rate 0.2500 kg/ha
  herbicidal effect rating ORYSAT: 7.0

## CC(O)c1nsc2ccc(-n3c(=O)cc(C(F)(F)F)n(C)c3=O)cc12 (stereo not drawn) [Example 308, 2,4(1H,3H)-Pyrimidinedione, 3-[3-(1-hydroxyethyl)-1,2-benzisothiazol-5-yl]-1-methyl-6-(trifluoromethyl)-]
[1]; [11]
  herbicidal effect rating, ECHORC: 5.0
[1]; [12]
  herbicidal effect rating, ECHORC: 5.0
[1]; [13]
  herbicidal effect rating, ECHORC: 6.0
[1]; [14]
  herbicidal effect rating, ECHORC: 9.0
[2]; [11]
  herbicidal effect rating, MOOVA: 0.0
[2]; [12]
  herbicidal effect rating, MOOVA: 0.0
[2]; [13]
  herbicidal effect rating, MOOVA: 0.0
[2]; [14]
  herbicidal effect rating, MOOVA: 0.0
[3]; [11]
  herbicidal effect rating, CYPSE: 0.0
[3]; [12]
  herbicidal effect rating, CYPSE: 0.0
[3]; [13]
  herbicidal effect rating, CYPSE: 3.0
[3]; [14]
  herbicidal effect rating, CYPSE: 9.0
Sagittaria pygmaea, L.; [11]
  herbicidal effect rating, SAGPY: 0.0
Sagittaria pygmaea, L.; [12]
  herbicidal effect rating, SAGPY: 0.0
Sagittaria pygmaea, L.; [13]
  herbicidal effect rating, SAGPY: 3.0
Sagittaria pygmaea, L.; [14]
  herbicidal effect rating, SAGPY: 9.0
Cyperus iria; [11]
  herbicidal effect rating, CYPIR: 0.0
Cyperus iria; [12]
  herbicidal effect rating, CYPIR: 0.0
Cyperus iria; [13]
  herbicidal effect rating, CYPIR: 0.0
Cyperus iria; [14]
  herbicidal effect rating, CYPIR: 0.0
[4]; Rate 0.0320 kg/ha
  herbicidal effect rating ORYSAT: 5.0
[4]; Rate 0.0620 kg/ha
  herbicidal effect rating ORYSAT: 5.0
[4]; Rate 0.1250 kg/ha
  herbicidal effect rating ORYSAT: 6.0
[4]; Rate 0.2500 kg/ha
  herbicidal effect rating ORYSAT: 7.0

## COC(=O)COc1cc(C)ccc1-c1nsc2cc(F)c(-n3c(=O)cc(C(F)(F)F)n(C)c3=O)cc12 [Example 479, Acetic acid, {{6-{5-[3,6-dihydro-3-methyl-2,6-dioxo-4-(trifluoromethyl)-1(2H)-pyrimidinyl]-6-fluoro-1,2-benzisothiazol-3-yl}-m-tolyl}oxy}-, methyl ester]
[1]; 0.0320 kg/ha, preemergence
  ECHORC herbicidal rating: 7.0
[1]; 0.0620 kg/ha, preemergence
  ECHORC herbicidal rating: 7.0
[1]; 0.1250 kg/ha, preemergence
  ECHORC herbicidal rating: 9.0
[1]; 0.2500 kg/ha, preemergence
  ECHORC herbicidal rating: 9.0
[2]; 0.0320 kg/ha, preemergence
  MOOVA herbicidal rating: 0.0
[2]; 0.0620 kg/ha, preemergence
  MOOVA herbicidal rating: 7.0
[2]; 0.1250 kg/ha, preemergence
  MOOVA herbicidal rating: 9.0
[2]; 0.2500 kg/ha, preemergence
  MOOVA herbicidal rating: 9.0
[3]; 0.0320 kg/ha, preemergence
  CYPSE herbicidal rating: 0.0
[3]; 0.0620 kg/ha, preemergence
  CYPSE herbicidal rating: 7.0
[3]; 0.1250 kg/ha, preemergence
  CYPSE herbicidal rating: 9.0
[3]; 0.2500 kg/ha, preemergence
  CYPSE herbicidal rating: 9.0
Sagittaria pygmaea, L.; 0.0320 kg/ha, preemergence
  SAGPY herbicidal rating: 3.0
Sagittaria pygmaea, L.; 0.0620 kg/ha, preemergence
  SAGPY herbicidal rating: 5.0
Sagittaria pygmaea, L.; 0.1250 kg/ha, preemergence
  SAGPY herbicidal rating: 6.0
Sagittaria pygmaea, L.; 0.2500 kg/ha, preemergence
  SAGPY herbicidal rating: 8.0
Cyperus iria; 0.0320 kg/ha, preemergence
  CYPIR herbicidal rating: 0.0
Cyperus iria; 0.0620 kg/ha, preemergence
  CYPIR herbicidal rating: 0.0
Cyperus iria; 0.1250 kg/ha, preemergence
  CYPIR herbicidal rating: 5.0
Cyperus iria; 0.2500 kg/ha, preemergence
  CYPIR herbicidal rating: 9.0
[4]; 0.0320 kg/ha
  ORYSAT herbicidal rating (rice tolerance): 5.0
[4]; 0.0620 kg/ha
  ORYSAT herbicidal rating (rice tolerance): 5.0
[4]; 0.1250 kg/ha
  ORYSAT herbicidal rating (rice tolerance): 9.0
[4]; 0.2500 kg/ha
  ORYSAT herbicidal rating (rice tolerance): 9.0
